Measured values published in patent US9227971B2, “Pyrazolo[1,5-a]pyrimidine compounds as mTOR inhibitors” (Merck Sharp & Dohme Corp., priority 2010, dated 2016).
Like-named read-outs stand apart in the source and are kept apart here.

Columns and labels:
human mTOR enzyme = human mTOR enzyme (Homo sapiens, UniProt P42345); assay: mTOR kinase assay (HTRF mTOR enzyme assay); assay type: biochemical; conditions: 5 μM ATP, 0.2 μM GST-S6K, one hour at 30° C.
Procedure: An HTRF mTOR enzyme assay was developed to assess the compounds' inhibitory activity. The mTOR assay buffer contained 10 mM Hepes (pH 7.4), 50 mM NaCl, 100 μg/ml BSA, 50 mM B-glycerophosphate, 10 mM MnCl2 and 0.5 mM DTT. […] 20 ng of human mTOR enzyme (<5% pure was preincubated with the compound for 10 minutes followed by the addition of 5 μM ATP and 0.2 μM GST-S6K (Zhang et al., Protein Expression and Purification 46, pp 414-420 (2006)). The reaction was incubated for one hour at 30° C. Anti phospho p70-S6K(Thr389) (˜1.7 ng/well, anti-phospho-p70S6K-cryptate (Pho-p70S6-Kin-K cat#64CUSKAY, from Cisbio)) and anti GST-XL665 (1:1 Ratio with the substrate GST-S6K, anti GST-XL665, cat#61 GSTXLB) Cisbio) were added after the reaction was stopped. The plates were read (PHERAstar, BMG) at least 2 hours after adding the anti phospho p70-S6K and the anti GST-XL665.
Dose-response curves were plotted from the inhibition data generated, each in duplicate, from 8 point serial dilutions of inhibitory compounds. Concentration of compound was plotted against the HTRF em665/em590 ratio signal. To generate IC50 values, the dose-response curves were fitted to a standard sigmoidal curve and IC50 values were derived by nonlinear regression analysis.

[1] = test system: phosphorylated AKT Ser473 (pAKT S473), mTORC2 activity, PC3 cells; assay: mTOR target engagement assay, immunofluorescent cell-based, pAKT S473 readout (mTORC2 activity)
Method in brief: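 After blocking, cells were stained overnight at 4 °C with anti-pAKT S473 antibody, then a fluorescent secondary; inhibition was read as reduced fluorescence intensity.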

[2] = test system: phosphorylated 4E-BP1 Thr37/46 (p4E-BP1 Thr37/46), mTORC1 activity, PC3 cells; assay: mTOR target engagement assay, immunofluorescent cell-based, p4E-BP1 Thr37/46 readout (mTORC1 activity); conditions: read-out: p4E-BP1 Thr37/46 IC50
Method in brief: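 Cell-based immunofluorescence in PC3 cells: serially diluted compounds (0.25% DMSO, 5% FBS) applied for ninety minutes at 37° C before fixation and overnight 4° C staining of p4E-BP1 Thr37/46. Untreated DMSO wells set maximal phosphorylation; IC50 obtained by logistic fitting.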

[3] = Homo sapiens, PC-3, PC3 cells, compound treatment ninety minutes at 37° C.
[4] = Homo sapiens, PC-3, Table 3-1, PC3 cells
[5] = Homo sapiens, PC-3, Table 6-1, PC3 cells

Sequence of human mTOR enzyme (P42345 1360-2549 limits assumed): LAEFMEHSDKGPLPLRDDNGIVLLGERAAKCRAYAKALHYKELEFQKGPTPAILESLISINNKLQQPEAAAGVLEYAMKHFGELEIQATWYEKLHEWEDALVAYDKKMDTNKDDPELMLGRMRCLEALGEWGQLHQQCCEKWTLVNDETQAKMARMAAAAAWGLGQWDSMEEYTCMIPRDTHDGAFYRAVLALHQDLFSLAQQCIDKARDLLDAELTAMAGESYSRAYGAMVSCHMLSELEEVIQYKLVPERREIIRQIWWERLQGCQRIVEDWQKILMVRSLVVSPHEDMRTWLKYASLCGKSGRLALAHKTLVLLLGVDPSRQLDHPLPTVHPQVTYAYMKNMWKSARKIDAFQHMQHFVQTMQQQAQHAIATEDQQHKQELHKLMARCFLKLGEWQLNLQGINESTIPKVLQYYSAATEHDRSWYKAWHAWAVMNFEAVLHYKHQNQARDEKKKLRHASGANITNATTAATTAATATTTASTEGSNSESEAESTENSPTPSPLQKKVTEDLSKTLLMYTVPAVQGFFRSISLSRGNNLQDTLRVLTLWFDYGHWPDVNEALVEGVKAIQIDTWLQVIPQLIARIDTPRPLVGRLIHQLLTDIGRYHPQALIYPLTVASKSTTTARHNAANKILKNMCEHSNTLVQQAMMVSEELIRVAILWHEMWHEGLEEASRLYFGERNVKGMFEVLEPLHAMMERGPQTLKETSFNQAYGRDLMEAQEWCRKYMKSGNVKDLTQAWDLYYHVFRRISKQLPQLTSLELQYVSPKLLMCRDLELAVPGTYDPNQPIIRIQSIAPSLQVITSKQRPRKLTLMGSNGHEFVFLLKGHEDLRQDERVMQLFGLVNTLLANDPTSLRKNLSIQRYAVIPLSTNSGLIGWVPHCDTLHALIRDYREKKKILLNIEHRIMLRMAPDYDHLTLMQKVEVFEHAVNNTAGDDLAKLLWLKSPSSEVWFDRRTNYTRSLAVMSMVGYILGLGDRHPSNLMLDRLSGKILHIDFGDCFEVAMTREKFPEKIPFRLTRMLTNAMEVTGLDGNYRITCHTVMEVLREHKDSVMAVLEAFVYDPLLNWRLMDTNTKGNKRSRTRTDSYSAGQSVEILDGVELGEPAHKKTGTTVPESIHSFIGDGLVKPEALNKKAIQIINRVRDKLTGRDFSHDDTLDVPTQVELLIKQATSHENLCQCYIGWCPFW

CC(=O)c1c(N2C3CCC2CN(C(=O)[C@@H](C)O)C3)nc2c(-c3ccc(-c4ccccc4)nc3)cnn2c1N [Compound 50]
IC50 (human mTOR enzyme): 10 to 25 nM

CC(=O)c1c(N2C3CCC2CN(C(=O)CO)C3)nc2c(-c3ccc(-c4ccccc4)nc3)cnn2c1N [Compound 49]
IC50 (human mTOR enzyme): 1 to 10 nM

Nc1cc([C@@H]2C[C@H]3CC[C@@H](C2)N3)nc2c(-c3cc[nH]c(=O)c3)cnn12 [Example 8B, 4-{7-Amino-5-[(3-exo)-8-azabicyclo[3.2.1]oct-3-yl]pyrazolo[1,5-a]pyrimidin-3-yl}pyridin-2(1H)-one]
IC50 (human mTOR enzyme): 489 nM

CC(=O)c1c(N2CC3CCC2CN3C(=O)c2nnc[nH]2)nc2c(-c3ccc(-c4ccccc4)nc3)cnn2c1N (stereo not drawn) [Compound 48]
IC50 (human mTOR enzyme): 1 to 10 nM

CC(=O)c1c(N2CC3CCC2CN3C(=O)[C@@H](C)O)nc2c(-c3ccc(-c4ccccc4)nc3)cnn2c1N (stereo partly drawn) [Compound 47]
IC50 (human mTOR enzyme): 10 to 25 nM

Nc1c(F)c([C@@H]2C[C@H]3CC[C@@H](C2)N3C(=O)CO)nc2c(-c3ccc(-c4ncc[nH]4)nc3)cnn12 [Example 8A, 1-[(3-Exo)-3-{7-amino-6-fluoro-3-[6-(1H-imidazol-2-yl)pyridin-3-yl]pyrazolo[1,5-a]pyrimidin-5-yl}-8-azabicyclo[3.2.1]oct-8-yl]-2-hydroxyethanone]
IC50 (human mTOR enzyme): 2 nM

CS(=O)(=O)c1c([C@@H]2C[C@H]3CC[C@@H](C2)N3c2nccc(N)n2)nc2c(-c3ccc(-c4ccccc4)nc3)cnn2c1N [Compound 8.63, 5-((1R,3s,5S)-8-(4-aminopyrimidin-2-yl)-8-azabicyclo[3.2.1]octan-3-yl)-6-(methylsulfonyl)-3-(6-phenylpyridin-3-yl)pyrazolo[1,5-a]pyrimidin-7-amine]
IC50 ([1]; Homo sapiens, PC-3, PC3 cells): 1000 to 10000 nM
IC50 ([2]; Homo sapiens, PC-3, PC3 cells): 1000 to 10000 nM

CC(=O)c1c([C@@H]2C[C@H]3CC[C@@H](C2)N3C(=O)c2nc[nH]n2)nc2c(-c3ccc(-c4ncc(C(F)F)s4)nc3)cnn2c1N [Compound 1.1.26, 1-(5-((1R,3s,5S)-8-(1H-1,2,4-triazole-3-carbonyl)-8-azabicyclo[3.2.1]octan-3-yl)-7-amino-3-(6-(5-(difluoromethyl)thiazol-2-yl)pyridin-3-yl)pyrazolo[1,5-a]pyrimidin-6-yl)ethanone]
IC50 [1, 3]: 100 to 1000 nM
IC50 [2, 3]: 100 to 1000 nM

Cc1cnc(-c2ccc(-c3cnn4c(N)c(S(C)(=O)=O)c([C@@H]5C[C@H]6CC[C@@H](C5)N6C(=O)CO)nc34)cn2)s1 [Compound 3.185, 1-((1R,3a,5S)-3-(7-amino-6-(methylsulfonyl)-3-(6-(5-methylthiazol-2-yl)pyridin-3-yl)pyrazolo[1,5-a]pyrimidin-5-yl)-8-azabicyclo[3.2.1]octan-8-yl)-2-hydroxyethanone]
IC50 [1, 4]: 100 to 1000 nM
IC50 [2, 4]: 100 to 1000 nM

CC(=O)c1c(C2CC3CCC(C2)N3C(=O)c2c[nH]nn2)nc2c(-c3ccc(-c4ccccc4)nc3)cnn2c1N [Compound 1.1.21, 1-(5-((1R,3s,5S)-8-(1H-1,2,3-triazole-5-carbonyl)-8-azabicyclo[3.2.1]octan-3-yl)-7-amino-3-(6-phenylpyridin-3-yl)pyrazolo[1,5-a]pyrimidin-6-yl)ethanone]
IC50 [1, 3]: 1 to 100 nM
IC50 [2, 3]: 1 to 100 nM

COCCOCc1ccc(-c2cnn3c(N)c(S(C)(=O)=O)c([C@@H]4C[C@H]5CC[C@@H](C4)N5C(=O)c4nnc[nH]4)nc23)cn1 [Compound 7.32, ((1R,3s,5S)-3-(7-amino-3-(6-((2-methoxyethoxy)methyl)pyridin-3-yl)-6-(methylsulfonyl)pyrazolo [1,5-a]pyrimidin-5-yl)-8-azabicyclo[3.2.1]octan-8-yl)(4H-1,2,4-triazol-3-yl)methanone]
IC50 [1, 3]: > 10000 nM
IC50 [2, 3]: 1000 to 10000 nM

CC(=O)c1c([C@@H]2C[C@H]3CC[C@@H](C2)N3C(=O)c2nnc[nH]2)nc2c(-c3cnc(-c4ccccc4)c(O)c3)cnn2c1N [Compound 1.1.31, 1-(5-((1R,3s,5S)-8-(4H-1,2,4-triazole-3-carbonyl)-8-azabicyclo[3.2.1]octan-3-yl)-7-amino-3-(5-hydroxy-6-phenylpyridin-3-yl)pyrazolo[1,5-a]pyrimidin-6-yl)ethanone]
IC50 [1, 3]: 1000 to 10000 nM
IC50 [2, 3]: 1000 to 10000 nM

Nc1cc([C@@H]2C[C@H]3CC[C@@H](C2)N3C(=O)[C@H]2CCCN2)nc2c(-c3ccc(-c4ccccc4)nc3)cnn12 [Compound 2.19, ((1R,3S,5S)-3-(7-amino-3-(6-phenylpyridin-3-yl)pyrazolo[1,5-a]pyrimidin-5-yl)-8-azabicyclo[3.2.1]octan-8-yl)((R)-pyrrolidin-2-yl)methanone]
IC50 [1, 3]: 100 to 1000 nM
IC50 [2, 3]: 1000 to 10000 nM

CC(=O)c1c([C@@H]2C[C@H]3CC[C@@H](C2)N3C=O)nc2c(-c3ccc(-c4ncc[nH]4)nc3)cnn2c1N [Compound 6.15, (1R,3s,5S)-3-(3-(6-(1H-imidazol-2-yl)pyridin-3-yl)-6-acetyl-7-aminopyrazolo[1,5-a]pyrimidin-5-yl)-8-azabicyclo[3.2.1]octane-8-carbaldehyde]
IC50 [1, 5]: 1 to 100 nM
IC50 [2, 5]: 1 to 100 nM

CS(=O)(=O)c1c([C@@H]2C[C@H]3CC[C@@H](C2)N3C(=N)NO)nc2c(-c3ccc(-c4ccccc4)nc3)cnn2c1N [Compound 8.72, (1R,3s,5S)-3-(7-amino-6-(methylsulfonyl)-3-(6-phenylpyridin-3-yl)pyrazolo[1,5-a]pyrimidin-5-yl)-N-hydroxy-8-azabicyclo[3.2.1]octane-8-carboximidamide]
IC50 ([1]; PC3 cells): 1000 to 10000 nM
IC50 ([2]; PC3 cells): 1000 to 10000 nM

COc1ccc(-c2ccc(-c3cnn4c(N)c(C(C)=O)c([C@@H]5C[C@H]6CC[C@@H](C5)N6C(=O)CO)nc34)cn2)cc1F [Compound 1.1.58, 1-((1R,3s,5S)-3-(6-acetyl-7-amino-3-(6-(3-fluoro-4-methoxyphenyl)pyridin-3-yl)pyrazolo[1,5-a]pyrimidin-5-yl)-8-azabicyclo[3.2.1]octan-8-yl)-2-hydroxyethanone]
IC50 [1, 3]: 100 to 1000 nM
IC50 [2, 3]: 100 to 1000 nM

CC(=O)c1c(C2CC3CCC(C2)N3C(=O)c2nnc[nH]2)nc2c(-c3ccc(-c4ccccc4)nc3)cnn2c1N [Compound 1.1.7, 1-(5-((1R,3s,5S)-8-(1H-1,2,4-triazole-3-carbonyl)-8-azabicyclo[3.2.1]octan-3-yl)-7-amino-3-(6-phenylpyridin-3-yl)pyrazolo[1,5-a]pyrimidin-6-yl)ethanone]
IC50 [1, 3]: 1 to 100 nM
IC50 [2, 3]: 1 to 100 nM

[2H]C([2H])([2H])n1ccc(-c2ccc(-c3cnn4c(N)c(C(C)=O)c([C@@H]5C[C@H]6CC[C@@H](C5)N6C(=O)CO)nc34)cn2)n1 [Compound 1.1.84, 1-((1R,3s,5S)-3-(6-acetyl-7-amino-3-(6-(1-methyl-(D3)-1H-pyrazol-3-yl)pyridin-3-yl)pyrazolo[1,5-a]pyrimidin-5-yl)-8-azabicyclo[3.2.1]octan-8-yl)-2-hydroxyethanone]
IC50 [1, 3]: 1 to 100 nM
IC50 [2, 3]: 1 to 100 nM

Nc1c(C2CC2)c([C@@H]2C[C@H]3CC[C@@H](C2)N3C(=O)c2nnc[nH]2)nc2c(-c3ccc(-c4ncc[nH]4)nc3)cnn12 [Compound 6.2, ((1R,3s,5S)-3-(3-(6-(1H-imidazol-2-yl)pyridin-3-yl)-7-amino-6-cyclopropylpyrazolo [1,5-a]pyrimidin-5-yl)-8-azabicyclo[3.2.1]octan-8-yl)(4H-1,2,4-triazol-3-yl)methanone]
IC50 [1, 5]: 1 to 100 nM
IC50 [2, 5]: 1 to 100 nM

CS(=O)(=O)c1c([C@@H]2C[C@H]3CC[C@@H](C2)N3C(=O)c2nnc[nH]2)nc2c(-c3cnc(-c4ccccc4)c(O)c3)cnn2c1N [Compound 3.22, ((1R,3s,5S)-3-(7-amino-3-(5-hydroxy-6-phenylpyridin-3-yl)-6-(methylsulfonyl)pyrazolo[1,5-a]pyrimidin-5-yl)-8-azabicyclo[3.2.1]octan-8-yl)(4H-1,2,4-triazol-3-yl)methanone]
IC50 [1, 4]: 100 to 1000 nM
IC50 [2, 4]: 1000 to 10000 nM

Cc1ccc(-c2cnn3c(N)c(S(C)(=O)=O)c([C@@H]4C[C@H]5CC[C@@H](C4)N5C(=O)c4nnc[nH]4)nc23)cn1 [Compound 3.68, ((1R,3s,5S)-3-(7-amino-3-(6-methylpyridin-3-yl)-6-(methylsulfonyl)pyrazolo[1,5-a]pyrimidin-5-yl)-8-azabicyclo[3.2.1]octan-8-yl)(4H-1,2,4-triazol-3-yl)methanone]
IC50 ([1]; Table 3-1, PC3 cells): 100 to 1000 nM
IC50 ([2]; Table 3-1, PC3 cells): 100 to 1000 nM
